Among the data in ChEMBL document CHEMBL1135858, “Vitamin D(3): synthesis of seco-C-9,11-bisnor-17-methyl-1 alpha,25-dihydroxyvitamin D(3) analogues” (2002) are Activity and Relative affinity values, retold here.

Each structure is given as a SMILES string.

The test system of one experiment is HL-60. Description: Percent inhibition against HL-60 cell line (50% dose response), relative to 1-alpha,25 (OH)2D3 (100% activity) determined in vitro. More on the design: scale not given: the % may be the effect or the level left. The format is functional, Homo sapiens.
Another experiment has as its system Keratinocyte. Description: Percent inhibition against Keratinocytes cell line (50% dose response), relative to 1-alpha,25 (OH)2D3 (100% activity) determined in vitro. More on the design: scale not given: the % may be the effect or the level left. Type of experiment: functional, Homo sapiens.
Another experiment relates to MCF7. As to the kind of experiment: Percent inhibition against MCF-7 cell line (50% dose response), relative to 1-alpha,25 (OH)2D3 (100% activity) determined in vitro. Type of experiment: functional, Homo sapiens. Also noted: scale not given: the % may be the effect or the level left.
In the next experiment the test system is Mus musculus. Description: Calcemic effect in vivo in vitamin D-replete normal NMRI mice by daily intraperitoneal injections of compound and 1-alpha,25 (OH)2D3 for 7 consecutive days. The format is functional.
Experiment [1] addresses T1, Vitamin D3 receptor (Sus scrofa) (UniProt A3RGC1).
T1 sequence (whole entry): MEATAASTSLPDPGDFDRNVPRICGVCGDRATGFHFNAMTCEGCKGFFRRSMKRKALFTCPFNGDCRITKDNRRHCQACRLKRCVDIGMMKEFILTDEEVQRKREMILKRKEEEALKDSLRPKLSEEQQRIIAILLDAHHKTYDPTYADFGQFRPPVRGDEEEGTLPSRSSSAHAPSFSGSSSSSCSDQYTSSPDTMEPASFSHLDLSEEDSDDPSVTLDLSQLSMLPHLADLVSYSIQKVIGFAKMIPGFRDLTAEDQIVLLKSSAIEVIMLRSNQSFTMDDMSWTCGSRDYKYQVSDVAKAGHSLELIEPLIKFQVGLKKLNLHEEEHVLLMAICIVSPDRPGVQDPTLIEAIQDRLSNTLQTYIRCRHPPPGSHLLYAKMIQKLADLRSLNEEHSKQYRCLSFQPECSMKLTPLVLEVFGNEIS
Description: (§1) Displacement of 50% binding of [3H]alpha,25 (OH)2D3 from pig intestinal mucosa Vitamin D3 receptor. Type of experiment: tissue-based.

The target of experiment [2] is T1, Vitamin D3 receptor (Sus scrofa). The experiment is described as §1.

`CC(CCCC(C)(C)O)C[C@H](C)[C@@]1(C)CC[C@@H](/C=C/C=C2C[C@@H](O)C[C@H](O)C2)C1(C)C` (stereo not given in full): the Activity with HL-60 is listed as 600%; in the experiment on Keratinocyte, 600%; with MCF7, 400%; in the experiment with Mus musculus it was 0.5%. This molecule also showed a Relative affinity in experiment [1] of 40.

Regarding `CC(CC#CC(C)(C)O)C[C@H](C)[C@@]1(C)CC[C@@H](/C=C/C=C2C[C@@H](O)C[C@H](O)C2)C1(C)C` (stereo not given in full), the Activity in the experiment with HL-60 is 350%; in the experiment on Keratinocyte, 2000%; in the experiment with MCF7 it was 1300%; in the experiment on Mus musculus, 4%. Further, the Relative affinity in experiment [1] worked out at 40.

For the molecule `CCC(O)(CC)CCCC(C)C[C@H](C)[C@@]1(C)CC[C@@H](/C=C/C=C2C[C@@H](O)C[C@H](O)C2)C1(C)C` (stereo not given in full), the Activity is 500% in the experiment on HL-60, 7000% with Keratinocyte, 7500% in the experiment with MCF7 and 20% in the experiment on Mus musculus. In experiment [1], this molecule showed a Relative affinity of 60.

In the case of `CCC(O)(CC)CCCC(C)C[C@@H](C)[C@@]1(C)CC[C@@H](/C=C/C=C2C[C@@H](O)C[C@H](O)C2)C1(C)C` (stereo not given in full), the Activity with HL-60 is listed as 80%; in the experiment on Keratinocyte, 300%; with MCF7, 150%; with Mus musculus, 0.5%. This molecule also displayed a Relative affinity in experiment [2] of 10.

Consider `C=C1C(=CC=C[C@@H]2CC[C@](C)([C@@H](C)CC(C)CCCC(O)(CC)CC)C2(C)C)C[C@@H](O)C[C@@H]1O` (stereo not given in full), for which the Activity with HL-60 is reported as 1250%; in the experiment on Keratinocyte it was 7000%; in the experiment on MCF7 it was 15000%; with Mus musculus, 100%. For the same molecule, in experiment [1], the Relative affinity is 85.

As to `C=C1C(=CC=C[C@@H]2CC[C@](C)([C@H](C)CC(C)CC#CC(C)(C)O)C2(C)C)C[C@@H](O)C[C@@H]1O` (stereo not given in full), the Activity in the experiment with HL-60 is given as 80%; in the experiment with Keratinocyte, 500%; in the experiment with MCF7, 600%; with Mus musculus it was 3%. The molecule further returned a Relative affinity in experiment [2] of 60.

On to `C=C1/C(=C\C=C2/CCC[C@]3(C)[C@@H]([C@H](C)CCCC(C)(C)O)CC[C@@H]23)C[C@@H](O)C[C@@H]1O` [CALCITRIOL], for which the Activity in the experiment with HL-60, in the experiment with Keratinocyte, in the experiment on MCF7 and in the experiment with Mus musculus was 100% throughout. In experiment [1], this molecule had a Relative affinity of 100.

As to `CCC(O)(C#CCC(C)C[C@H](C)[C@@]1(C)CC[C@@H](/C=C/C=C2C[C@@H](O)C[C@H](O)C2)C1(C)C)CC` (stereo not given in full), the Activity with HL-60 was 400%; in the experiment on Keratinocyte it was 300%; in the experiment on MCF7, 700%; in the experiment with Mus musculus, 2%. For the same molecule, the Relative affinity in experiment [1] was found to be 60.

Regarding `C=C1C(=CC=C[C@@H]2CC[C@](C)([C@H](C)CC(C)CC#CC(O)(CC)CC)C2(C)C)C[C@@H](O)C[C@@H]1O` (stereo not given in full), the Activity in the experiment with HL-60 was 75%; with Keratinocyte, 80%; with MCF7, 150%; in the experiment on Mus musculus it was 2%. In experiment [2], this molecule yielded a Relative affinity of 80.

Turning to `CC(CCCC(O)(C(F)(F)F)C(F)(F)F)C[C@H](C)[C@@]1(C)CC[C@@H](/C=C/C=C2C[C@@H](O)C[C@H](O)C2)C1(C)C` (stereo not given in full), the Activity was 400% with HL-60, 16000% with Keratinocyte, 20000% with MCF7 and 100% in the experiment with Mus musculus. Moreover, in experiment [1], the Relative affinity was found to be 40.

As to `CCC(O)(C#CCC(C)C[C@@H](C)[C@@]1(C)CC[C@@H](/C=C/C=C2C[C@@H](O)C[C@H](O)C2)C1(C)C)CC` (stereo not given in full), the Activity in the experiment on HL-60 is reported as 50%; in the experiment with Keratinocyte, 85%; in the experiment on MCF7, 85%; in the experiment with Mus musculus it was 0.25%. Besides, the Relative affinity in experiment [2] was 50.

Take `C=C1C(=CC=C[C@@H]2CC[C@](C)([C@H](C)CC(C)CCCC(O)(CC)CC)C2(C)C)C[C@@H](O)C[C@@H]1O` (stereo not given in full): the Activity in the experiment with HL-60 is given as 150%; with Keratinocyte it was 400%; in the experiment on MCF7, 300%; in the experiment on Mus musculus it was 2%. The molecule also yielded a Relative affinity in experiment [2] of 50.

As for `CC(CCCC(O)(C(F)(F)F)C(F)(F)F)C[C@@H](C)[C@@]1(C)CC[C@@H](/C=C/C=C2C[C@@H](O)C[C@H](O)C2)C1(C)C` (stereo not given in full), the Activity with HL-60 is 100%; with Keratinocyte, 1500%; in the experiment on MCF7, 600%; in the experiment with Mus musculus, 50%. The Relative affinity in experiment [2] turned out to be 9.

`CC(CC#CC(C)(C)O)C[C@@H](C)[C@@]1(C)CC[C@@H](/C=C/C=C2C[C@@H](O)C[C@H](O)C2)C1(C)C` (stereo not given in full): the Activity in the experiment on HL-60 was 85%; with Keratinocyte, 200%; with MCF7, 70%; with Mus musculus, 0.12%. The Relative affinity in experiment [2] was 7.

As for `CC(CC#CC(O)(C(F)(F)F)C(F)(F)F)C[C@H](C)[C@@]1(C)CC[C@@H](/C=C/C=C2C[C@@H](O)C[C@H](O)C2)C1(C)C` (stereo not given in full), the Activity is listed as 400% in the experiment on HL-60, 15000% with Keratinocyte, 6000% with MCF7 and 25% with Mus musculus. Besides, the Relative affinity in experiment [1] was 50.

On to `C=C1C(=CC=C[C@@H]2CC[C@](C)([C@H](C)CC(C)CCCC(O)(C(F)(F)F)C(F)(F)F)C2(C)C)C[C@@H](O)C[C@@H]1O` (stereo not given in full), for which the Activity in the experiment with HL-60 is given as 150%; with Keratinocyte it was 2400%; in the experiment with MCF7, 2500%; in the experiment on Mus musculus it was 10%. Further, in experiment [2], the Relative affinity amounted to 30.

For `C=C1C(=CC=C[C@@H]2CC[C@](C)([C@@H](C)CC(C)CC#CC(C)(C)O)C2(C)C)C[C@@H](O)C[C@@H]1O` (stereo not given in full), the Activity is given as 800% with HL-60, 3250% in the experiment with Keratinocyte, 1250% in the experiment with MCF7 and 3% in the experiment with Mus musculus. Also, the Relative affinity in experiment [1] was 75.

As to `C=C1C(=CC=C[C@@H]2CC[C@](C)([C@H](C)CC(C)CC#CC(O)(C(F)(F)F)C(F)(F)F)C2(C)C)C[C@@H](O)C[C@@H]1O` (stereo not given in full), the Activity with HL-60 was 250%; in the experiment on Keratinocyte it was 3600%; with MCF7 it was 4500%; in the experiment on Mus musculus, 6%. The same molecule displayed a Relative affinity in experiment [2] of 60.

Regarding `C=C1C(=CC=C[C@@H]2CC[C@](C)([C@H](C)CC(C)CCCC(C)(C)O)C2(C)C)C[C@@H](O)C[C@@H]1O` (stereo not given in full), the Activity in the experiment with HL-60 was 50%; in the experiment on Keratinocyte it was 100%; in the experiment on MCF7, 60%; in the experiment on Mus musculus, 0.25%. This molecule showed a Relative affinity in experiment [2] of 6.

Regarding `CC(CC#CC(O)(C(F)(F)F)C(F)(F)F)C[C@@H](C)[C@@]1(C)CC[C@@H](/C=C/C=C2C[C@@H](O)C[C@H](O)C2)C1(C)C` (stereo not given in full), the Activity is 300% in the experiment on HL-60, 3000% in the experiment with Keratinocyte, 1500% in the experiment on MCF7 and 3% in the experiment with Mus musculus. For the same molecule, the Relative affinity in experiment [2] stood at 50.

On to `C=C1C(=CC=C[C@@H]2CC[C@](C)([C@@H](C)CC(C)CCCC(C)(C)O)C2(C)C)C[C@@H](O)C[C@@H]1O` (stereo not given in full), for which the Activity in the experiment with HL-60 is 800%; with Keratinocyte, 1000%; with MCF7 it was 2000%; in the experiment with Mus musculus, 8%. In experiment [2], this molecule gave a Relative affinity of 85.

Regarding `C=C1C(=CC=C[C@@H]2CC[C@](C)([C@@H](C)CC(C)CC#CC(O)(C(F)(F)F)C(F)(F)F)C2(C)C)C[C@@H](O)C[C@@H]1O` (stereo not given in full), the Activity with HL-60 is listed as 1250%; in the experiment on Keratinocyte, 15000%; in the experiment on MCF7, 8000%; in the experiment on Mus musculus, 25%. The molecule also had a Relative affinity in experiment [1] of 75.

`C=C1C(=CC=C[C@@H]2CC[C@](C)([C@@H](C)CC(C)CCCC(O)(C(F)(F)F)C(F)(F)F)C2(C)C)C[C@@H](O)C[C@@H]1O` (stereo not given in full): the Activity with HL-60 is listed as 400%; with Keratinocyte it was 20000%; in the experiment with MCF7 it was 30000%; in the experiment on Mus musculus, above 100%. Moreover, the Relative affinity in experiment [1] stood at 60.

For the molecule `CC(CCCC(C)(C)O)C[C@@H](C)[C@@]1(C)CC[C@@H](/C=C/C=C2C[C@@H](O)C[C@H](O)C2)C1(C)C` (stereo not given in full), the Activity in the experiment on HL-60 is listed as 10%; in the experiment on Keratinocyte, 80%; in the experiment on MCF7, 8%; in the experiment on Mus musculus, 0.12%. Moreover, in experiment [2], the Relative affinity turned out to be 3.

As for `C=C1C(=CC=C[C@@H]2CC[C@](C)([C@@H](C)CC(C)CC#CC(O)(CC)CC)C2(C)C)C[C@@H](O)C[C@@H]1O` (stereo not given in full), the Activity is on record as 600% in the experiment with HL-60, 800% in the experiment on Keratinocyte, 750% with MCF7 and 25% with Mus musculus. This molecule yielded a Relative affinity in experiment [1] of 80.
